Assay results reported in patent US20240122865A1, “Methods of Protecting RNA” (Pfizer Inc., priority 2021, published 2024).

Tests used:
Type in all cases: biochemical, Trichoderma atroviride
FgenL mRNA construct = assay: Size Exclusion Base Hydrolysis Degradation Assay, FgenL; settings: 25 mM amino acid; for T0 R1 peak area at 250 nm: FgenL 0.1 mg/mL, 50 mM CAPS, T=0, replicate 1; for T2 Avg, peak area as percentage of T=0 / T2 R1 peak area at 250 nm / T10 Avg, peak area as percentage of T=0 / T10 R1 peak area at 250 nm / T24 Avg, peak area as percentage of T=0 / T24 R1 peak area at 250 nm / T0 Avg, peak area as percentage of T=0: FgenL; for T2 Avg, peak area as percentage of T=0 / T2 R1 peak area at 250 nm / T10 Avg, peak area as percentage of T=0 / T10 R1 peak area at 250 nm / T24 Avg, peak area as percentage of T=0 / T24 R1 peak area at 250 nm: 50 mM CAPS pH 11, room temperature; for T2 Avg, peak area as percentage of T=0 / T2 R1 peak area at 250 nm: 2 hrs; for T2 R1 peak area at 250 nm / T10 R1 peak area at 250 nm / T24 R1 peak area at 250 nm: replicate 1; for T10 Avg, peak area as percentage of T=0 / T10 R1 peak area at 250 nm: 10 hrs; for T24 Avg, peak area as percentage of T=0 / T24 R1 peak area at 250 nm: 24 hrs; for T0 Avg, peak area as percentage of T=0: T=0 (reference)
Method: Basic assay procedure: RNA samples were diluted to 1.0 mg/mL in DNAase/RNAase free water. Amino acids were dissolved in water to a stock solution of 100 mM and a solution of 500 mM CAPS pH 11 was used. The two mRNA constructs tested were FgenL and Chi18. Each individual sample volume was 50 μL. To determine the amount of 1 M NaOH needed to adjust the final pH to 11.0 after the addition of all sample components, the sample volume was increased 100 fold (5 mL), the volume of 1 M NaOH recorded and this value was translated back down to the 50 μL sample volume.
The mRNA and amino acid were allowed to incubate for one hour prior to the addition of CAPS pH 11. All steps of the assay were conducted at room temperature.
Degradation reaction: After the CAPS addition, the samples were injected onto the Waters H-Class UPLC system to record the first timepoint, T=O. This resulting chromatogram was processed by integrating the area of absorbance at 250 nm for the mRNA construct. Immediately following this timepoint, the pH was adjusted to 11. Subsequent time points (2 hrs, 10 hrs, and 24 hrs) recorded the Absorbance Units (peak area) at 250 nm as a percentage of the peak area determined at T=O. Integration of the chromatogram for subsequent timepoints was conducted by analyzing the area of absorbance at 250 nm contained within the same time window in which the peak eluted in T=0 for the 100% intact mRNA.

FgenL model RNA [1] = settings: percent protection, pH 11.0, 44° C., 16 hours, n = 2
Chi18 model RNA [2] = assay: Droplet Digital Polymerase Chain Reaction (ddPCR) Assay, Chi18; settings: percent protection, pH 11.0, 30° C., 16 hours, n = 2
How it was run: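 Chi18 (25 fg/μL) or FgenL (10 fg/μL) RNA at pH 11.0 incubated 16 h with amino acids (10-point half-log series, ~300 mM top stock in CAPS), at 30° C or 44° C respectively. Intact RNA reverse-transcribed, ddPCR 5′-positive droplet fraction taken as protection; EC50 from four-parameter logistic fit.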

Chi18 model RNA [3] = assay: TapeStation Assay, Chi18 model RNA; set-up: Conc. chi18#1 / Conc. chi18#2: unit not given here; settings: for % Control N = 1 / % Control N = 2 / % Control Avg.: Chi18 RNA, 20 mM amino acids, 50 mM CAPS pH 11, 50° C. 15 min; for % Control N = 1 / % Control N = 2: vs Time 0; for % Control Avg.: vs Time 0, Avg N=2; for Conc. chi18#1 / Conc. chi18#2: intact Chi18 RNA after 15 min at 50° C.; for Conc. chi18#1: 20 mM amino acids in 50 mM CAPS pH 11, run #1; for Conc. chi18#2: 20 mM amino acids in 50 mM CAPS pH 11, run #2
How it was run: (§1)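 Chi18 or FgenL model RNA at 50 ng/μL in 50 mM CAPS pH 11 was mixed with amino acids (stocks in CAPS, readjusted to >pH 11) and heated at 50° C for 0 or 15 minutes; time-0 samples stayed on ice. Intact RNA was measured by capillary electrophoresis with optical detection and compared with a no-degradation baseline.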

FgenL model RNA [4] = assay: TapeStation Assay, FgenL model RNA; set-up: Conc. FgenL#1 / Conc. FgenL#2: unit not given here; settings: for % Control N = 1 / % Control N = 2 / % Control Average: FgenL RNA, 20 mM amino acids, 50 mM CAPS pH 11, 50° C. 15 min; for % Control N = 1 / % Control N = 2: vs Time 0; for % Control Average: vs Time 0, Avg N=2; for Conc. FgenL#1 / Conc. FgenL#2: intact FgenL RNA after 15 min at 50° C.; for Conc. FgenL#1: 20 mM amino acids in 50 mM CAPS pH 11, run #1; for Conc. FgenL#2: 20 mM amino acids in 50 mM CAPS pH 11, run #2
How it was run: as §1

Structure (SMILES)	T0 R1 peak area at 250 nm (FgenL mRNA construct)	T2 Avg, peak area as percentage of T=0 (FgenL mRNA construct)	T2 R1 peak area at 250 nm (FgenL mRNA construct)	T10 Avg, peak area as percentage of T=0 (FgenL mRNA construct)	T10 R1 peak area at 250 nm (FgenL mRNA construct)	T24 Avg, peak area as percentage of T=0 (FgenL mRNA construct)	T24 R1 peak area at 250 nm (FgenL mRNA construct)	T0 Avg, peak area as percentage of T=0 (FgenL mRNA construct)	EC50 (FgenL model RNA [1])	EC50 (Chi18 model RNA [2])	% Control N = 1 (Chi18 model RNA [3])	% Control N = 2 (Chi18 model RNA [3])	% Control Avg. (Chi18 model RNA [3])	Conc. chi18#1 (Chi18 model RNA [3])	Conc. chi18#2 (Chi18 model RNA [3])	% Control N = 1 (FgenL model RNA [4])	% Control N = 2 (FgenL model RNA [4])	% Control Average (FgenL model RNA [4])	Conc. FgenL#1 (FgenL model RNA [4])	Conc. FgenL#2 (FgenL model RNA [4])
NC(=O)CC[C@H](N)C(=O)O [Glutamine]	15510	25.9%	5779	0.0%	0	0.0%	0	100.0%	> 30 mM	8.8 mM	15.9%	17.8%	16.8%	8.46	9.42	29.0%	10.3%	19.6%	10	3.57
N=C(N)NCCC[C@H](N)C(=O)O [Arginine]	14624	0.0%	0	0.0%	0	0.0%	0	100.0%	> 30 mM	7.6 mM	5.2%	4.7%	4.9%	2.78	2.46	4.2%	3.3%	3.8%	1.46	1.15
NCCCC[C@H](N)C(=O)O [Lysine]	17400	0.0%	0	0.0%	0	0.0%	0	100.0%	> 30 mM	> 30 mM	22.0%	15.5%	18.7%	11.7	8.18	19.9%	17.6%	18.7%	6.85	6.12
CC(C)C[C@H](N)C(=O)O [Leucine]	13599	27.3%	4569	0.0%	0	0.0%	0	100.0%	> 30 mM	> 25 mM	30.8%	31.9%	31.4%	16.4	16.9	24.3%	16.9%	20.6%	8.37	5.85
N[C@@H](Cc1ccc(O)cc1)C(=O)O [Tyrosine]	22082	64.7%	13039	15.0%	1912	5.6%	912	100.0%	> 30 mM	> 30 mM	31.9%	31.9%	31.9%	17		33.9%	21.9%	27.9%	11.7	7.59
N[C@@H](Cc1ccccc1)C(=O)O [Phenylalanine]	18152	62.2%	12662	1.7%	605	0.0%	0	100.0%	> 30 mM	> 18 mM	17.2%	25.3%	21.3%	9.19	13.4	13.8%	6.9%	10.4%	4.76	2.4
CC(C)[C@H](N)C(=O)O [Valine]	17745	22.8%	4305	0.0%	0	0.0%	0	100.0%	> 30 mM	> 30 mM	32.5%	32.5%	32.5%	17.3		25.4%	18.4%	21.9%	8.77	6.38
O=C(O)[C@@H]1C[C@@H](O)CN1 [Hydroxyproline]	16626	22.4%	5048	0.0%	0	0.0%	0	100.0%	> 30 mM	> 30 mM	17.3%	17.3%	17.3%	9.2		14.8%	10.7%	12.8%	5.12	3.73
N[C@@H](CCC(=O)O)C(=O)O [Glutamic acid]	14529	73.9%	10330	39.7%	8449	0.0%	0	100.0%	19 mM	6.7 mM	76.0%	94.5%	85.3%	40.5	50	89.9%	76.1%	83.0%	31	26.4
